The values that follow come from ChEMBL document CHEMBL1201862, “PubChem BioAssay data set” (2004).

Active and inactive are the calls of the source.

Assay [1] concerns the target Genome polyprotein (dengue virus type 2, UniProt P29990). Description: Dengue-2 NS5 methyltransferase inhibitors, primary screen, biochemical, confirmation dose response (AID 588689). In kind it is functional.
Assay [2] addresses DNA (cytosine-5)-methyltransferase 1 (Homo sapiens, UniProt P26358). The assay can be described thus: DNMT1 methyltransferase inhibitors, confirmation, biochemical, fluorescent molecular beacon (AID 602386). The format is functional.
Assay [3] deals with T1, Small ubiquitin-related modifier 2 (Homo sapiens, UniProt P61956). Description: SUMO2–SIM peptide binding inhibitors, dose response, selectivity assay for SUMO1 interaction inhibitor project, biochemical, fluorescence polarization, uHTS hits (AID 624385). The format is functional. The note with it: read-out: IC50_Mean.
In assay [4] the target is T2, Small ubiquitin-related modifier 1 (Homo sapiens, UniProt P63165). The assay can be described thus: inhibitors of SUMO1 peptide binding, dose response, biochemical, fluorescence polarization, uHTS hits (AID 624382). In kind it is functional. The note with it: read-out: IC50_Mean.
For assay [5], the target named is T1, Small ubiquitin-related modifier 2. The assay can be described thus: inhibitors of SUMO2 protein-protein interaction, dose response, selectivity assay for SUMO1 interaction inhibitor project, biochemical, FRET, human SUMO2, uHTS hits (AID 624384). In kind it is functional. The settings on record: read-out: IC50_Mean.
Assay [6] deals with T2, Small ubiquitin-related modifier 1. The assay can be described thus: inhibitors of SUMO1 partner interactions, dose response, biochemical, FRET (AID 624383). The format is functional. The note with it: read-out: IC50_Mean.
Assay [7] deals with Beta-lactamase (Pseudomonas aeruginosa, UniProt Q79MP6).
Assay [8] concerns the target Beta-lactamase (Salmonella choleraesuis (strain SC-B67), UniProt Q5J463).
In assay [9] the target is Tyrosine-protein phosphatase non-receptor type 11 (Homo sapiens, UniProt Q06124). The assay can be described thus: SHP2 phosphatase inhibition, dose response, selectivity assay for STEP inhibitor project, biochemical (AID 602367). In kind it is functional. The settings on record: read-out: IC50_Mean.
In assay [10] the target is Tyrosine-protein phosphatase non-receptor type 5 (Homo sapiens, UniProt P54829). The assay can be described thus: STEP phosphatase inhibitors, confirmation, biochemical, fluorescence intensity, uHTS hits (AID 602372). The format is functional. The note with it: read-out: IC50_Mean.
The target of assay [11] is Dual specificity protein phosphatase 3 (Homo sapiens, UniProt P51452). Description: VHR phosphatase inhibition, dose response, selectivity assay for STEP inhibitor project, biochemical (AID 602374). The settings on record: read-out: IC50_Mean. In kind it is functional.
Assay [12] deals with T3, Long-chain-fatty-acid--AMP ligase FadD28 (Mycobacterium tuberculosis, UniProt P9WQ59).
T3 sequence (P9WQ59 whole entry): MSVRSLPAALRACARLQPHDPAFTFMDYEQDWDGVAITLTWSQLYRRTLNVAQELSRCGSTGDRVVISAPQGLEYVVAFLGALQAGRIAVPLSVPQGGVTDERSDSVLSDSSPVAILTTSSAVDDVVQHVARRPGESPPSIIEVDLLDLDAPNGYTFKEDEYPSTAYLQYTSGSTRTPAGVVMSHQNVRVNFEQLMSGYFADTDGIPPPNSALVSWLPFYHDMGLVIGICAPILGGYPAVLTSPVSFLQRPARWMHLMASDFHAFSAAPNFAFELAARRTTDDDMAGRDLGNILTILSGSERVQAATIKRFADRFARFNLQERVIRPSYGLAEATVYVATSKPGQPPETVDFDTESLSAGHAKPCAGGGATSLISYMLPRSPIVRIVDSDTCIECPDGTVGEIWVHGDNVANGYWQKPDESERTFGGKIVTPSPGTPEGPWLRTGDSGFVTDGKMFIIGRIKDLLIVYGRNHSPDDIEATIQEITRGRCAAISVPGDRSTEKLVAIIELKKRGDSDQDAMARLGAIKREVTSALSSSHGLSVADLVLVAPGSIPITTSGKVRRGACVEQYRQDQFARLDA
The assay can be described thus: Fluorescence polarization aasay to screen for inhibitors that compete for the binding of FadD28 to a bisubstrate Measured in Biochemical System Using Plate Reader - 2147-01_Inhibitor_Dose_CherryPick_Activity. The format is functional, Mycobacterium tuberculosis H37Rv.

Assay [13] addresses T4, Histone-lysine N-methyltransferase NSD2 (Homo sapiens, UniProt O96028).
T4 sequence (O96028 whole entry): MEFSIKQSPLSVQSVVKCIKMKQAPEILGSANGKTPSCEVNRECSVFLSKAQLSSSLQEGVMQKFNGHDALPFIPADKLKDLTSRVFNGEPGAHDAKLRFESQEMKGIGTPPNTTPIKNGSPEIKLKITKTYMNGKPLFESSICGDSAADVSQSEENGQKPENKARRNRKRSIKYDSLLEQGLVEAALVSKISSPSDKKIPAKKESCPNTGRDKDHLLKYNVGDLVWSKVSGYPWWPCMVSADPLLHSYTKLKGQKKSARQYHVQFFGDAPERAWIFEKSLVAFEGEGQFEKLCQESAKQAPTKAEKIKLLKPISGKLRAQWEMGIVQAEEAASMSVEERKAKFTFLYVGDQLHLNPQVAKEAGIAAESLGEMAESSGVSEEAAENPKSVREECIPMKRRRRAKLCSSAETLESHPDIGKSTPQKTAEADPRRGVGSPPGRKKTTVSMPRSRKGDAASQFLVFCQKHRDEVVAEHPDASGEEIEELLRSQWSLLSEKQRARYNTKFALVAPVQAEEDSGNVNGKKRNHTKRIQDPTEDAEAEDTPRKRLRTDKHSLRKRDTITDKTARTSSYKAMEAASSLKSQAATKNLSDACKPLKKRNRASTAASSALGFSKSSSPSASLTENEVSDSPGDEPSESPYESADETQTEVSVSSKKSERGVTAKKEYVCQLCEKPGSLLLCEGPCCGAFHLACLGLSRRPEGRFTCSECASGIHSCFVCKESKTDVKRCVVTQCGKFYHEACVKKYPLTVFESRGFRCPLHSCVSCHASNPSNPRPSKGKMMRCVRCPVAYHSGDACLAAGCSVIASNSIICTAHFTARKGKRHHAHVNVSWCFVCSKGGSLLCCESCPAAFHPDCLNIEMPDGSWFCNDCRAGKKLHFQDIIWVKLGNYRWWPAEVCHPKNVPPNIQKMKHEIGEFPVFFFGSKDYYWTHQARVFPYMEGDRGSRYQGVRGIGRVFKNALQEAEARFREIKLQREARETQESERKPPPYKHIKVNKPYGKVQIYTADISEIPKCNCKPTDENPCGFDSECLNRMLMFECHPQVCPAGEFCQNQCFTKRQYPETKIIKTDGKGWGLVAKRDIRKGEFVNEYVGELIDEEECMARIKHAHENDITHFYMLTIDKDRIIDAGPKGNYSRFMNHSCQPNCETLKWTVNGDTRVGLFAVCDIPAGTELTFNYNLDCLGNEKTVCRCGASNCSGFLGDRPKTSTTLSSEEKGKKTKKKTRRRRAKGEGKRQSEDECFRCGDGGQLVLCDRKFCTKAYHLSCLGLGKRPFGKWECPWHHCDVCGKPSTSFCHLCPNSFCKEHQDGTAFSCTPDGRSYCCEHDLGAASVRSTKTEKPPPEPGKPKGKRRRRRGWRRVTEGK
In kind it is biochemical.

Assay [14] is described as follows: ARNT/TACC3 interaction disruptors, potency, confirmation, biochemical, AlphaScreen, cherry-picked samples (AID 651703).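 Further: His-tagged ARNT PAS-B domain paired with GST-TACC3 E629A dimer coactivator fragment; potency of inhibitors that break up the complex and lower AlphaScreen signal.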 The format is functional, Homo sapiens.
Assay [15] concerns the target ADP-ribosylation factor GTPase-activating protein 1 (Rattus norvegicus, UniProt Q62848). The assay can be described thus: Fluorescence polarization-based biochemical high throughput dose response screening assay to identify inhibitors of ADP-ribosylation factor GTPase activating protein 1 (ARFGAP1). The format is functional.
Assay [16] addresses Arf-GAP with SH3 domain, ANK repeat and PH domain-containing protein 1 (Homo sapiens, UniProt Q9ULH1). The format is functional.
In assay [17] the target is Mitochondrial peptide methionine sulfoxide reductase (Bos taurus, UniProt P54149). Description: Absorbance-based biochemical high throughput dose response assay for activators of Methionine sulfoxide reductase A (MsrA). In kind it is functional.
Assay [18] is described as follows: HeLa cell cytotoxicity, dose response, cytotoxicity control for MgcRacGAP inhibitor project (AID 624300). The format is functional.
The target of assay [19] is T5, Rac GTPase-activating protein 1 (Homo sapiens, UniProt Q9H0H5).
T5 sequence (Q9H0H5 whole entry): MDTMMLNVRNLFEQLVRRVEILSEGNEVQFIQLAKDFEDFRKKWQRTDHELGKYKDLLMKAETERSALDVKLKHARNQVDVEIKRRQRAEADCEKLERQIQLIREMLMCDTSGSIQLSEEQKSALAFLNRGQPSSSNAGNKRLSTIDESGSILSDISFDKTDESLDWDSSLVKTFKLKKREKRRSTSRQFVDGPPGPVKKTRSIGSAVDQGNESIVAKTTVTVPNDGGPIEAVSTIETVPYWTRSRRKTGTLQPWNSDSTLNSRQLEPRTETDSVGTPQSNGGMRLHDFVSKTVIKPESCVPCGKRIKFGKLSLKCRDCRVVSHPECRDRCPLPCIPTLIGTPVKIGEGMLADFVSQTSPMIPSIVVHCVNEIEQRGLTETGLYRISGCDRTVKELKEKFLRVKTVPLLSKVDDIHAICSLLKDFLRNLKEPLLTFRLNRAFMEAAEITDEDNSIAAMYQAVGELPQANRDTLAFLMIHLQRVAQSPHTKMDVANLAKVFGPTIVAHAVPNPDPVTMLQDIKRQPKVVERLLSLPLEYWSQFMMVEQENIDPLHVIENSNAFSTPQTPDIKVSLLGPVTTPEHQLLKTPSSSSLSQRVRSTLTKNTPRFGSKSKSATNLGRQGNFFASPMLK
Description: MgcRacGAP GTPase-activating activity inhibitors, confirmation, biochemical, ADP Hunter fluorescence, primary and confirmatory (AID 624330). In kind it is functional.

Assay [20] concerns the target T6, Tyrosyl-DNA phosphodiesterase 2 (Homo sapiens, UniProt O95551).
T6 sequence (O95551 whole entry): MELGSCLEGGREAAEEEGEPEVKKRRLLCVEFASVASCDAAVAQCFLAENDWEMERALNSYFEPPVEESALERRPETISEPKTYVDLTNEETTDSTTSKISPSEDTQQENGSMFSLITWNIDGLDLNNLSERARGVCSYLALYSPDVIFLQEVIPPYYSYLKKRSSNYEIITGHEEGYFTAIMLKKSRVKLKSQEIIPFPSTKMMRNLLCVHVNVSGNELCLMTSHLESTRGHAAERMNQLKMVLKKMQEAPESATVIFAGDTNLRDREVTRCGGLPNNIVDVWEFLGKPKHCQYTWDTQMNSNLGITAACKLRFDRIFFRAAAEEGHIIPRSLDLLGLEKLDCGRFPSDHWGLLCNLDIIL
The assay can be described thus: human TDP2 enzyme inhibitors, dose response, biochemical, epi absorbance, IC50 (AID 743297).

Assay [21] addresses T7, High affinity choline transporter 1 (Homo sapiens, UniProt Q9GZV3).
T7 sequence (Q9GZV3 whole entry): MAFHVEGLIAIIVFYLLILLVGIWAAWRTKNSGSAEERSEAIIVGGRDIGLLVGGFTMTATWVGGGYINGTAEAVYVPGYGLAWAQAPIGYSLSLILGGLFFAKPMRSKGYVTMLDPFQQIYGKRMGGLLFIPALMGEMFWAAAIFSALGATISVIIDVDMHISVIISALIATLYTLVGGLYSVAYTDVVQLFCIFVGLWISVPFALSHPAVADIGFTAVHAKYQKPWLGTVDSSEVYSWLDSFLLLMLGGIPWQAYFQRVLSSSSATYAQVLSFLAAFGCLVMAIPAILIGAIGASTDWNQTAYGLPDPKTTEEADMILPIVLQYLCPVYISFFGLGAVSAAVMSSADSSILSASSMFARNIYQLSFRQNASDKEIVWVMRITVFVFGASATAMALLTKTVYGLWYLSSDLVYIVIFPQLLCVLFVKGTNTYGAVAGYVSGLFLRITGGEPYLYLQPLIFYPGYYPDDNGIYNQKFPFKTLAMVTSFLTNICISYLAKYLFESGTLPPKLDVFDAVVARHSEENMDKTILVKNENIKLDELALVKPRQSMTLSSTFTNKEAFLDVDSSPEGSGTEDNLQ
Description: CHT inhibitors reducing choline uptake, dose response, orthogonal assay for CHT inhibitor project, cell-based, 3H-choline uptake, radioactive, HEK293 CHT LV-AA (AID 651756). The format is functional.

For assay [22], the target named is Potassium voltage-gated channel subfamily KQT member 2 (Rattus norvegicus, UniProt O88943). Description: KCNQ2 potassium channel inhibitors, dose response, cell-based, automated electrophysiology, set II, rat KCNQ2 (AID 588637). The format is functional.
Potassium voltage-gated channel subfamily KQT member 2, sequence (O88943 whole entry): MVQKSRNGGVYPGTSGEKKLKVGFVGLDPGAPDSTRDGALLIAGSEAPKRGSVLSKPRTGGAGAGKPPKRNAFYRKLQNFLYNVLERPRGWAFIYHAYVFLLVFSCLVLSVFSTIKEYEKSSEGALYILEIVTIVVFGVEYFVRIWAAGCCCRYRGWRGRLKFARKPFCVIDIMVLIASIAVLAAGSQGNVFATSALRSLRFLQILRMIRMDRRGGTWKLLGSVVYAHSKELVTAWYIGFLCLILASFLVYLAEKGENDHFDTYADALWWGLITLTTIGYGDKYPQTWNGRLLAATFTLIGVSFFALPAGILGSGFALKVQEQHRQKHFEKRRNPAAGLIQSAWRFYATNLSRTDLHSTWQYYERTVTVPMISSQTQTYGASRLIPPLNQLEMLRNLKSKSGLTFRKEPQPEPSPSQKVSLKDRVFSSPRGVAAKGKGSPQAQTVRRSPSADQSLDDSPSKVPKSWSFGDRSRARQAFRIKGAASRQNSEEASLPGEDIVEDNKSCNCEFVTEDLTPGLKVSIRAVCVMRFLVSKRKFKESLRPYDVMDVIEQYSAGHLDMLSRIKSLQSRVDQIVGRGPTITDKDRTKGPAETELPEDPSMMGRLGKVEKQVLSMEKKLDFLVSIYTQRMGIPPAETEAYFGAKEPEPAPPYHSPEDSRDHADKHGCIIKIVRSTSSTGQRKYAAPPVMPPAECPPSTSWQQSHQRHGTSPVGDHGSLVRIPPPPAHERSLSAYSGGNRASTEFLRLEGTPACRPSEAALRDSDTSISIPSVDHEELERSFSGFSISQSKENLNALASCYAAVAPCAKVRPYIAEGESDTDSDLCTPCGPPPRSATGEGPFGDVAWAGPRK

T1 sequence (P61956 whole entry): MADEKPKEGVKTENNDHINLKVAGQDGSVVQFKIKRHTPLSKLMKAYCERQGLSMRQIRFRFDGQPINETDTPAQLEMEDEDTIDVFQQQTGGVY
Genome polyprotein, sequence (P29990 2492-3391 limits assumed): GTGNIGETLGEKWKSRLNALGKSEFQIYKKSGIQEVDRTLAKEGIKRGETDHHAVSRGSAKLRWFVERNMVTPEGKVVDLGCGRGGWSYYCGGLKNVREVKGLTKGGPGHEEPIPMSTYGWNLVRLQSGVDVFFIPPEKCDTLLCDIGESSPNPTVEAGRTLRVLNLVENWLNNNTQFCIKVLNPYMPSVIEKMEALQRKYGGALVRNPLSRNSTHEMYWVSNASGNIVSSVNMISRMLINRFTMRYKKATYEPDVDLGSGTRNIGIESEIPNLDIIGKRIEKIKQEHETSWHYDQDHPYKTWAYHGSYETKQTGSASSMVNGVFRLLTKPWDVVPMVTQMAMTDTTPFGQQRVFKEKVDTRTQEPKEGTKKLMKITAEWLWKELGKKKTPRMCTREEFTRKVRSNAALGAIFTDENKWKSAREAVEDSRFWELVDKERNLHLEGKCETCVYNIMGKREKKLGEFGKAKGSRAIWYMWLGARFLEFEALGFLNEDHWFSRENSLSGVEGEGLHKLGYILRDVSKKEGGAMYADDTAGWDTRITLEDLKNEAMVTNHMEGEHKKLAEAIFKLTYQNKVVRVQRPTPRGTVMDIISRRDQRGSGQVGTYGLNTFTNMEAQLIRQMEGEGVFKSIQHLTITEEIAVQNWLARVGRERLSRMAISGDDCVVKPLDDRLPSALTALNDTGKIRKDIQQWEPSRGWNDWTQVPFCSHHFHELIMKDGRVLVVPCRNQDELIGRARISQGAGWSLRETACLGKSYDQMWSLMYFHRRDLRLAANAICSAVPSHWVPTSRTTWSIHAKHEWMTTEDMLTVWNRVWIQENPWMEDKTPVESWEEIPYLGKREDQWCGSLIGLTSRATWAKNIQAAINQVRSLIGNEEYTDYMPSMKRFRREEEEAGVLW
T2 sequence (P63165 whole entry): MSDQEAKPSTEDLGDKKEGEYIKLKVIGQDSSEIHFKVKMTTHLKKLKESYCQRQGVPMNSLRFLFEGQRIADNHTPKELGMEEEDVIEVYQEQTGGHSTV
Arf-GAP with SH3 domain, ANK repeat and PH domain-containing protein 1, sequence (Q9ULH1 whole entry, the tested form may be a part): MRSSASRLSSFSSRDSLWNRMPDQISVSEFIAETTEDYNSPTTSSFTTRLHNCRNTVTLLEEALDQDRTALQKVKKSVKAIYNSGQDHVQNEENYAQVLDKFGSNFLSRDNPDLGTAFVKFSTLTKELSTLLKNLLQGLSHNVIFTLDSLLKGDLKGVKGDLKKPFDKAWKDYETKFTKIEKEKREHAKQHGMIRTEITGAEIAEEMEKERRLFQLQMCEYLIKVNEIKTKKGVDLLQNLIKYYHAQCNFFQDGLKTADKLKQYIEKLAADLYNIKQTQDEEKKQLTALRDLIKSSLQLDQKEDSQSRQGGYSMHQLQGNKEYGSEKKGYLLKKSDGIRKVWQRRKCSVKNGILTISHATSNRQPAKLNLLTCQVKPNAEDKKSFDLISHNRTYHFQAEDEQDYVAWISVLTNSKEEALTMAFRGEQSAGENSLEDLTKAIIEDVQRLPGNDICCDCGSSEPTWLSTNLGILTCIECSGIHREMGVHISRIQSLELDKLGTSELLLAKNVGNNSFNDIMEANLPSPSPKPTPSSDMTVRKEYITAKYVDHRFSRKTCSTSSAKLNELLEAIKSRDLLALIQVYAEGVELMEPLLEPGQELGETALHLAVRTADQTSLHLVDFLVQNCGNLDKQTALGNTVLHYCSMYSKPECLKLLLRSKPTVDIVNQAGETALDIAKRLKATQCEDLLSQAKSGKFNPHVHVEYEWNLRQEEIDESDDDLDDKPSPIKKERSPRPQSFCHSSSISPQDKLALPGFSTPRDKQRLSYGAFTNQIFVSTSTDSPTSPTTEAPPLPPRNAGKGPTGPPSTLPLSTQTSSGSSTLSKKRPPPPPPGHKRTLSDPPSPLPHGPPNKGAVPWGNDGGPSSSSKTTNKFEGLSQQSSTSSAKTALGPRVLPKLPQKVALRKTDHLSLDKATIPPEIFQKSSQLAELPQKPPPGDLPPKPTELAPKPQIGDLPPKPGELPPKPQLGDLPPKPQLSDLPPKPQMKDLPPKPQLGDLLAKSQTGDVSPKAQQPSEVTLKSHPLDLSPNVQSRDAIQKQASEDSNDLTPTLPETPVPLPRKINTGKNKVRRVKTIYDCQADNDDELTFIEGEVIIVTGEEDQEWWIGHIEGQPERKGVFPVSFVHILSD
Dual specificity protein phosphatase 3, sequence (P51452 whole entry): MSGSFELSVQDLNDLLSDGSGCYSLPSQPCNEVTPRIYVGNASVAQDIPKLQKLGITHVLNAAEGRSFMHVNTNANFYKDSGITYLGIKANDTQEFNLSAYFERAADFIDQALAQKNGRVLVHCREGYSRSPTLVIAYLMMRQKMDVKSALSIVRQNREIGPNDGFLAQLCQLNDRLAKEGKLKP
Tyrosine-protein phosphatase non-receptor type 5, sequence (P54829 whole entry): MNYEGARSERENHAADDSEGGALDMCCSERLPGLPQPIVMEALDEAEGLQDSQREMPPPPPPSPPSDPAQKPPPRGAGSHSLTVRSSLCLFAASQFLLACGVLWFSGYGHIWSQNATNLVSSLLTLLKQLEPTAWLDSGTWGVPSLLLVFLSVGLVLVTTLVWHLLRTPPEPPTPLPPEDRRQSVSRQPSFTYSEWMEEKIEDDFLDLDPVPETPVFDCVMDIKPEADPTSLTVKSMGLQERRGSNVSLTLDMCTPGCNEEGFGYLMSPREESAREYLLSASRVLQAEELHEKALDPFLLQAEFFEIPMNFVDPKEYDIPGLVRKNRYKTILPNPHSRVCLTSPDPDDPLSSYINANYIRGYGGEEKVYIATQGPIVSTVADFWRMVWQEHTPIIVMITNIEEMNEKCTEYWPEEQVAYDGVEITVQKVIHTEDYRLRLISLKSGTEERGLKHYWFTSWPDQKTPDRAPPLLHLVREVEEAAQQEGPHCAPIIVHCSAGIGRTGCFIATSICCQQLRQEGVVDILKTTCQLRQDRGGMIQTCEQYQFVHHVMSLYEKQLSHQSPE
Beta-lactamase (Pseudomonas aeruginosa, UniProt Q79MP6), sequence (Q79MP6 whole entry): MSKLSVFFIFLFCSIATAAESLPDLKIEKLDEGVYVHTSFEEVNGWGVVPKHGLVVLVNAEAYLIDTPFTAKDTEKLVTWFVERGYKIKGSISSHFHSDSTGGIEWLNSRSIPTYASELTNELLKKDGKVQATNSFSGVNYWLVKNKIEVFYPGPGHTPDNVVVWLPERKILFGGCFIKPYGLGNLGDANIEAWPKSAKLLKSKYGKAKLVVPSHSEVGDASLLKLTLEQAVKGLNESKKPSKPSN
Tyrosine-protein phosphatase non-receptor type 11, sequence (Q06124 whole entry): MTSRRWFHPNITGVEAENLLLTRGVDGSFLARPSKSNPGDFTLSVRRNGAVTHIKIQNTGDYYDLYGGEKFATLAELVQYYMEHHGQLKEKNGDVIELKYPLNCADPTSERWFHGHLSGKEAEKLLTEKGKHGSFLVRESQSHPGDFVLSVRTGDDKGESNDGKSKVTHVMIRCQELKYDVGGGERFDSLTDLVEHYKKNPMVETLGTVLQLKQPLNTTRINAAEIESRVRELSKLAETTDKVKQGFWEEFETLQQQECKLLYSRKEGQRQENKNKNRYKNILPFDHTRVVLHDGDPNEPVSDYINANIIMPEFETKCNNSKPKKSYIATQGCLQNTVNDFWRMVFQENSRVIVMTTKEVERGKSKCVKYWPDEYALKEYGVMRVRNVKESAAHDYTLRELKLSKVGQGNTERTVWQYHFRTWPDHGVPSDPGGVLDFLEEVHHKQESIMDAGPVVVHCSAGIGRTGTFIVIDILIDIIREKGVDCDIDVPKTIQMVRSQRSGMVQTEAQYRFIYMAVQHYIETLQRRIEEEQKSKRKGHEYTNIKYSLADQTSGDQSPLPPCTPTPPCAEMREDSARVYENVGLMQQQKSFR
Mitochondrial peptide methionine sulfoxide reductase, sequence (P54149 whole entry): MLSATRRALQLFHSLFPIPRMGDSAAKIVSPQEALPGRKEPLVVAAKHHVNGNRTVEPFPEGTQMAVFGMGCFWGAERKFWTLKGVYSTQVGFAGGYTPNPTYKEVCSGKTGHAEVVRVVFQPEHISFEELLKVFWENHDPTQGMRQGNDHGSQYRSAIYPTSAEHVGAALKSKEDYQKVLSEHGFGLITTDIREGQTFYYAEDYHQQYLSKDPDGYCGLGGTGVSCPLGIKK

Regarding `CN(c1ccccc1)c1ccc(/C=C(/CCC(=O)O)c2nc3ccccc3s2)cc1[N+](=O)[O-]`, the IC50 in [1] is 48.5 µM (active); in [2] it was 9.98 µM (active); in [3], 6.2 µM (active); in assay [4] it was 11.1 µM (active); in assay [5] it was > 66 µM (inactive); in [6], 51.8 µM (inactive).

As for `COc1ccc(-c2cc(=O)oc3c(C)c(OCC(=O)NCCCn4ccnc4)ccc23)cc1`, the IC50 in assay [7] and in [8] was > 59.6 µM (inactive) in each case.

In the case of `CC(C(=O)Nc1ccc(O)cc1C(=O)O)N1C(=O)/C(=C\c2cccs2)SC1=S` (stereo not drawn), the IC50 in [1] was 47.9 µM (active); in assay [9], 1.5 µM (active); in assay [10] it was 20.5 µM (inactive); in [11], 5.64 µM (active). The AC50 in assay [12] was 49.3 µM (active); in assay [13], > 20 µM (inactive).

Turning to `C[C@H]1CN([C@@H](C)CO)C(=O)c2cc(NC(=O)Nc3cccc4ccccc34)ccc2O[C@@H]1CN(C)C(=O)Nc1ccc(C(F)(F)F)cc1`, the AC50 in assay [14] was 108 µM (active).

For `CCCCOc1cccc2c(=O)n(CC(=O)Nc3ccc4c(c3)OCCO4)ccc12`, the IC50 in [15] was 36.8 µM (inactive); in [16] it was 18.3 µM (inactive).

Take `C[n+]1c(-c2ccccc2)cc2c(=Cc3ccccc3)c3ccccc3n21`: the EC50 in assay [17] was > 104 µM (inactive). Besides, in [18], the CC50 is 26.3 µM (active). Also, the IC50 was 58.9 µM (active) in [19] and > 128 µM (inactive) in [20].

As to `O=C(Nc1ccc(S(=O)(=O)Nc2ccccn2)cc1)c1ccc([N+](=O)[O-])cc1Cl`, the IC50 in assay [21] is 3.85 µM (active).

Regarding `CCN(CC)S(=O)(=O)c1ccc(N2CCOCC2)c(NC(=O)COc2ccccc2)c1`, the IC50 in assay [22] was 2.96 µM (active).
